Assay results as given in US20230123334A1, “AMINO LIPID COMPOUND, PREPARATION METHOD THEREFOR, AND APPLICATION THEREOF” (SHENZHEN SHENXIN BIOTECHNOLOGY CO., LTD., priority 2020, published 2023).

system: HEK293 cells; experiment: Preliminary screening as mRNA vectors, EGFP mRNA transfection of HEK293 cells; type: cell-based; settings: EGFP mRNA 50 ng per well, 96-well plates; percentage of GFP fluorescent cells relative to total number of cells (Hoechst)
Method: Cell line: HEK293 cells (ATCC CRL-1573™)
Medium: DMEM supplemented with 10% fetal bovine serum (Invitrogen)
Screening: cell transfection on 96-well plates
Detection (readout): percentage of the number of GFP fluorescent cells relative to the total number of cells (the total number of cells was determined using nucleus dye Hoechst). Lipofectamine2000 (Invitrogen) was used as the positive control.
Method: the experimental method was basically the same with Example 4, and the mass of EGFP mRNA (TriLink) for transfection was 50 ng per well.

Row | Compound | Absolute mRNA transfection efficiency in HEK293 cells
1 | CCCCCCCCCCSc1nc(NCCN2CCOCC2)nc(SCCCCCCC)n1 [Compound D2S7S10] | 32.4%
2 | CCCCCCCCCCCSc1nc(NCCN2CCOCC2)nc(SCCCCCCC)n1 [Compound D2S7S11] | 24.2%
3 | CCCCCCCCCCCCSc1nc(NCCN2CCOCC2)nc(SCCCCCCC)n1 [Compound D2S7S12] | 19.2%
4 | CCCCCCCCCCCCCCSc1nc(NCCN2CCOCC2)nc(SCCCCCCC)n1 [Compound D2S7S14] | 11.0%
5 | CCCCCCCCCCCCCCCSc1nc(NCCN2CCOCC2)nc(SCCCCCCC)n1 [Compound D2S7S15] | 17.5%
6 | CCCCCCCCCCCCCCCCSc1nc(NCCN2CCOCC2)nc(SCCCCCCC)n1 [Compound D2S7S16] | 13.9%
7 | CCCCCCCCCCCCCCCCCCSc1nc(NCCN2CCOCC2)nc(SCCCCCCC)n1 [Compound D2S7S18] | 5.1%
8 | CCCCCCCCSc1nc(NCCCCCC)nc(NCCN2CCOCC2)n1 [Compound D2S8N6] | 0.7%
9 | CCCCCCCCSc1nc(NCCCCCCC)nc(NCCN2CCOCC2)n1 [Compound D2S8N7] | 0.9%
10 | CCCCCCCCNc1nc(NCCN2CCOCC2)nc(SCCCCCCCC)n1 [Compound D2S8N8] | 0.9%
11 | CCCCCCCCCNc1nc(NCCN2CCOCC2)nc(SCCCCCCCC)n1 [Compound D2S8N9] | 8.3%
12 | CCCCCCCCCCCNc1nc(NCCN2CCOCC2)nc(SCCCCCCCC)n1 [Compound D2S8N11] | 8.1%
13 | CCCCCCCCCCCCNc1nc(NCCN2CCOCC2)nc(SCCCCCCCC)n1 [Compound D2S8N12] | 7.0%
14 | CCCCCCCCCCCCCNc1nc(NCCN2CCOCC2)nc(SCCCCCCCC)n1 [Compound D2S8N13] | 7.5%
15 | CCCCCCCCCCCCCCCNc1nc(NCCN2CCOCC2)nc(SCCCCCCCC)n1 [Compound D2S8N15] | 5.5%
16 | CCCCCCCCCCCCCCCCNc1nc(NCCN2CCOCC2)nc(SCCCCCCCC)n1 [Compound D2S8N16] | 3.4%
17 | CCCCCCCCCCCCCCCCCCNc1nc(NCCN2CCOCC2)nc(SCCCCCCCC)n1 [Compound D2S8N18] | 3.7%
18 | CCCCCCCCSc1nc(NCCN2CCOCC2)nc(SCCCCCCCC)n1 [Compound D2S8S8] | 54.5%
19 | CCCCCCCCCSc1nc(NCCN2CCOCC2)nc(SCCCCCCCC)n1 [Compound D2S8S9] | 84.9%
20 | CCCCCCCCCCSc1nc(NCCN2CCOCC2)nc(SCCCCCCCC)n1 [Compound D2S8S10] | 38.8%
21 | CCCCCCCCCCCSc1nc(NCCN2CCOCC2)nc(SCCCCCCCC)n1 [Compound D2S8S11] | 43.3%

Row | Compound | Absolute mRNA transfection efficiency in HEK293 cells
22 | CCCCCCCCCCCCSc1nc(NCCN2CCOCC2)nc(SCCCCCCCC)n1 [Compound D2S8S12] | 1.1%
23 | CCCCCCCCCSc1nc(NCCCCCC)nc(NCCN2CCOCC2)n1 [Compound D2S9N6] | 0.5%
24 | CCCCCCCCCSc1nc(NCCCCCCC)nc(NCCN2CCOCC2)n1 [Compound D2S9N7] | 4.2%
25 | CCCCCCCCCSc1nc(NCCCCCCCC)nc(NCCN2CCOCC2)n1 [Compound D2S9N8] | 22.6%
26 | CCCCCCCCCNc1nc(NCCN2CCOCC2)nc(SCCCCCCCCC)n1 [Compound D2S9N9] | 38.5%
27 | CCCCCCCCCCCNc1nc(NCCN2CCOCC2)nc(SCCCCCCCCC)n1 [Compound D2S9N11] | 44.8%
28 | CCCCCCCCCCCCNc1nc(NCCN2CCOCC2)nc(SCCCCCCCCC)n1 [Compound D2S9N12] | 15.2%
29 | CCCCCCCCCCCCCNc1nc(NCCN2CCOCC2)nc(SCCCCCCCCC)n1 [Compound D2S9N13] | 12.3%
30 | CCCCCCCCCCCCCCCNc1nc(NCCN2CCOCC2)nc(SCCCCCCCCC)n1 [Compound D2S9N15] | 5.9%
31 | CCCCCCCCCCCCCCCCNc1nc(NCCN2CCOCC2)nc(SCCCCCCCCC)n1 [Compound D2S9N16] | 1.4%
32 | CCCCCCCCCCCCCCCCCCNc1nc(NCCN2CCOCC2)nc(SCCCCCCCCC)n1 [Compound D2S9N18] | 2.4%
33 | CCCCCCCCCCSc1nc(NCCCCCC)nc(NCCN2CCOCC2)n1 [Compound D2S10N6] | 0.1%
34 | CCCCCCCCCCSc1nc(NCCCCCCC)nc(NCCN2CCOCC2)n1 [Compound D2S10N7] | 0.5%
35 | CCCCCCCCCCSc1nc(NCCCCCCCC)nc(NCCN2CCOCC2)n1 [Compound D2S10N8] | 0.5%
36 | CCCCCCCCCCSc1nc(NCCCCCCCCC)nc(NCCN2CCOCC2)n1 [Compound D2S10N9] | 0.5%
37 | CCCCCCCCCCCNc1nc(NCCN2CCOCC2)nc(SCCCCCCCCCC)n1 [Compound D2S10N11] | 0.2%
38 | CCCCCCCCCCCCNc1nc(NCCN2CCOCC2)nc(SCCCCCCCCCC)n1 [Compound D2S10N12] | 1.5%
39 | CCCCCCCCCCCCCNc1nc(NCCN2CCOCC2)nc(SCCCCCCCCCC)n1 [Compound D2S10N13] | 0.2%
40 | CCCCCCCCCCCCCCCNc1nc(NCCN2CCOCC2)nc(SCCCCCCCCCC)n1 [Compound D2S10N15] | 1.3%
41 | CCCCCCCCCCCCCCCCNc1nc(NCCN2CCOCC2)nc(SCCCCCCCCCC)n1 [Compound D2S10N16] | 0.6%
42 | CCCCCCCCCCCCCCCCCCNc1nc(NCCN2CCOCC2)nc(SCCCCCCCCCC)n1 [Compound D2S10N18] | 0.0%

Row | Compound | Absolute mRNA transfection efficiency in HEK293 cells
43 | CCCCCCCCCCCSc1nc(NCCCCCC)nc(NCCN2CCOCC2)n1 [Compound D2S11N6] | 5.4%
44 | CCCCCCCCCCCSc1nc(NCCCCCCC)nc(NCCN2CCOCC2)n1 [Compound D2S11N7] | 8.5%
45 | CCCCCCCCCCCSc1nc(NCCCCCCCC)nc(NCCN2CCOCC2)n1 [Compound D2S11N8] | 2.4%
46 | CCCCCCCCCCCSc1nc(NCCCCCCCCC)nc(NCCN2CCOCC2)n1 [Compound D2S11N9] | 2.5%
47 | CCCCCCCCCCCNc1nc(NCCN2CCOCC2)nc(SCCCCCCCCCCC)n1 [Compound D2S11N11] | 0.6%
48 | CCCCCCCCCCCCNc1nc(NCCN2CCOCC2)nc(SCCCCCCCCCCC)n1 [Compound D2S11N12] | 3.1%
49 | CCCCCCCCCCCCCNc1nc(NCCN2CCOCC2)nc(SCCCCCCCCCCC)n1 [Compound D2S11N13] | 1.9%
50 | CCCCCCCCCCCCCCCNc1nc(NCCN2CCOCC2)nc(SCCCCCCCCCCC)n1 [Compound D2S11N15] | 2.8%
51 | CCCCCCCCCCCCCCCCNc1nc(NCCN2CCOCC2)nc(SCCCCCCCCCCC)n1 [Compound D2S11N16] | 1.1%
52 | CCCCCCCCCCCCCCCCCCNc1nc(NCCN2CCOCC2)nc(SCCCCCCCCCCC)n1 [Compound D2S11N18] | 0.0%
53 | CCCCCCCCCCCCSc1nc(NCCCCCC)nc(NCCN2CCOCC2)n1 [Compound D2S12N6] | 0.0%
54 | CCCCCCCCCCCCSc1nc(NCCCCCCC)nc(NCCN2CCOCC2)n1 [Compound D2S12N7] | 0.4%
55 | CCCCCCCCCCCCSc1nc(NCCCCCCCC)nc(NCCN2CCOCC2)n1 [Compound D2S12N8] | 1.6%
56 | CCCCCCCCCCCCSc1nc(NCCCCCCCCC)nc(NCCN2CCOCC2)n1 [Compound D2S12N9] | 1.1%
57 | CCCCCCCCCCCCSc1nc(NCCCCCCCCCCC)nc(NCCN2CCOCC2)n1 [Compound D2S12N11] | 0.3%
58 | CCCCCCCCCCCCNc1nc(NCCN2CCOCC2)nc(SCCCCCCCCCCCC)n1 [Compound D2S12N12] | 0.0%
59 | CCCCCCCCCCCCCNc1nc(NCCN2CCOCC2)nc(SCCCCCCCCCCCC)n1 [Compound D2S12N13] | 0.0%
60 | CCCCCCCCCCCCCCCNc1nc(NCCN2CCOCC2)nc(SCCCCCCCCCCCC)n1 [Compound D2S12N15] | 0.0%
61 | CCCCCCCCCCCCCCCCNc1nc(NCCN2CCOCC2)nc(SCCCCCCCCCCCC)n1 [Compound D2S12N16] | 0.8%
62 | CCCCCCCCCCCCCCCCCCNc1nc(NCCN2CCOCC2)nc(SCCCCCCCCCCCC)n1 [Compound D2S12N18] | 0.8%
